According to patent US5852007A, “Cysteine and serine protease inhibitors containing D-amino acid at the P2 position, methods of making same, and methods of using same” (priority 1997, dated 1998):
Where two headings read alike, the source gives them in different places. Square brackets hold non-standard residues; d marks the D form. Peptide text beside a SMILES is read from it. * marks the point of attachment. ξ: configuration not given here. d(αMeF) = C[C@@](N)(Cc1ccccc1)C(=O)O; 2Pal = N[C@@H](Cc1ccccn1)C(=O)O; 2Thi = N[C@@H](Cc1cccs1)C(=O)O; d2Thi = N[C@H](Cc1cccs1)C(=O)O; Tle = CC(C)(C)[C@H](N)C(=O)O; ξαMeL = CC(C)CC(C)(N)C(=O)O; ξF = NC(Cc1ccccc1)C(=O)O; Cbz = O=C(OCc1ccccc1)*; Bn = c1ccc(C*)cc1; Ms = CS(=O)(=O)*

Columns and labels:
Assay type in all cases: biochemical
thrombin = target: T1, thrombin (Homo sapiens, UniProt P00734); experiment: Inhibition of thrombin; settings: read-out: Thrombin % I @ 10 uM
T1 construct: purchased Sigma Chem. Co. T-7009

α-chymotrypsin = target: T2, α-chymotrypsin (Bos taurus, UniProt P00766); experiment: Inhibition of α-chymotrypsin; settings: read-out: Chymotrypsin % I @ 10 uM
T2 construct: purchased Sigma Chem. Co. C-3142
Description: Additionally, because α-chymotrypsin is not a calcium sensitive enzyme and is constitutively active, following addition of inhibitor stocks to the 96 well plates, 100 μl of a 2-fold concentrated stock of enzyme in dilution buffer was first added and the reaction started by addition of 100 μl of a 2-fold concentrated stock of substrate in assay buffer. Substrate hydrolysis was monitored every 5 minutes up to 30 minutes using a Fluoroskan II ([…]).

[1] = target: T3, Recombinant human calpain I (Homo sapiens, UniProt P07384); experiment: Inhibition of calpain I activity; settings: Table III
T3 construct: made in house
T3 sequence (P07384 1-714): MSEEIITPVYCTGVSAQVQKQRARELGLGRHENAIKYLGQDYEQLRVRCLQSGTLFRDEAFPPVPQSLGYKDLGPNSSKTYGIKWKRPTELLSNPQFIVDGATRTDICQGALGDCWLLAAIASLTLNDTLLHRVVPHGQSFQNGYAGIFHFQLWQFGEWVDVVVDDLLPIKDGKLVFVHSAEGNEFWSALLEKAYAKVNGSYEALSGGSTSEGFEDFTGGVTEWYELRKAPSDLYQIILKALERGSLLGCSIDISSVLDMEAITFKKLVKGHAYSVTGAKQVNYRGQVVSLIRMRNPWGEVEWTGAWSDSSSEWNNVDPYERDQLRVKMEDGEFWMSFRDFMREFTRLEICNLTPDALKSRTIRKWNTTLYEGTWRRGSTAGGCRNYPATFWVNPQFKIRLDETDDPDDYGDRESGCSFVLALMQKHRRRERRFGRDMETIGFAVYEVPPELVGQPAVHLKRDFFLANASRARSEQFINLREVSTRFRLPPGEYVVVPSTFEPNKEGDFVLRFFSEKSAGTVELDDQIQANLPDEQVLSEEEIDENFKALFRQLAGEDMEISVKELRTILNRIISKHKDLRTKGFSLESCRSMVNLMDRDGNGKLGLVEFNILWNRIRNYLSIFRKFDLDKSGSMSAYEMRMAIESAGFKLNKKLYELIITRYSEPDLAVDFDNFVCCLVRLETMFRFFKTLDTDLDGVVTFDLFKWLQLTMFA
Description: To evaluate inhibitory activity, stock solutions (40 times concentrated) of exemplary compounds of the invention were prepared in 100% anhydrous DMSO and 5 μL of each inhibitor preparation were aliquoted into each of three wells of a 96-well plate. Recombinant human calpain I, prepared by the method of Meyer et al. (Biochem. […] To start the reaction, 20 μL of 50 mM CaCl2 in assay buffer was added to all wells of the plate, excepting three, which were used as background signal baseline controls. Substrate hydrolysis was monitored every 5 minutes for a total of 30 minutes. […] Inhibition of calpain I activity was calculated as the percent decrease in the rate of substrate hydrolysis in the presence of inhibitor (VI) relative to the rate in its absence (VO). Comparison between VO and VI was made within the linear range for substrate hydrolysis. For screening, compounds were tested at 10, 1.0, and 0.1 μM. […] The results were plotted as % inhibition versus log inhibitor concentration and the IC50 was calculated from linear regression of the data. Apparent second order rate constants were determined from analysis of reaction progress curves under pseudo-first order conditions. Each determination represents the means of three or more independent single cuvette analyses continually monitored via a Perkin-Elmer LS50B spectrofluorimeter. The rate of inhibition of hydrolysis was obtained by fitting the curve to the exponential equation (1): […]

cathepsin L = target: T4, cathepsin L (Homo sapiens, UniProt P07711); experiment: Inhibition of cathepsin L; settings: read-out: Cat L % I @ 1 uM
T4 construct: purchased Calbiochem 219402
T4 sequence (P07711 114-288 limits assumed): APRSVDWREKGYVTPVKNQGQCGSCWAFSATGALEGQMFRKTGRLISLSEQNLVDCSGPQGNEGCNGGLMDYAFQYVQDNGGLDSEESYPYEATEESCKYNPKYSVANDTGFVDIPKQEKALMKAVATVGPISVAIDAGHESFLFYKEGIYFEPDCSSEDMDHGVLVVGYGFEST
T4 sequence (P07711 292-333 limits assumed): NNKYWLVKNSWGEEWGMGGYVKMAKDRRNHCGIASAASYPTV
Description: (§1) Additionally,the order of reagents added to the plate was altered because both enzymes are constitutively active. Following inhibitor addition to the plates, appropriate 2× concentrated stock dilutions of the enzyme preparations were made in assay buffer and 100 μl added to each well. The assay was initiated by addition of 100 μl of 2× concentrated stock dilution of substrate in assay buffer.

cathepsin B = target: T5, cathepsin B (Homo sapiens, UniProt P07858); experiment: Inhibition of cathepsin B; settings: for inhibition at 1 µM: read-out: Cat B % I @ 1 uM; for IC50: read-out: Cat B IC50
T5 construct: purchased Calbiochem 219364
Description: as §1

Row | SMILES | IC50 [1] [nM] | inhibition at 0.1 µM [1] [%] | inhibition at 10 µM (thrombin; Table III, 10 uM) [%] | inhibition at 10 µM (α-chymotrypsin; Table III, 10 uM) [%] | inhibition at 1 µM (cathepsin L; Table III, 1 uM) [%] | inhibition at 1 µM (cathepsin B; Table III, 1 uM) [%] | IC50 (cathepsin B; Table III) [nM] | inhibition at 10 µM (thrombin) [%] | inhibition at 10 µM (α-chymotrypsin) [%] | inhibition at 1 µM (cathepsin L) [%] | inhibition at 1 µM (cathepsin B) [%]
1 | CC(C)C[C@@H](NC(=O)OCc1ccccc1)C(=O)N[C@H](C=O)Cc1ccccc1 [Compound 85] (Cbz-[dL]-Phe-aldehyde) | 110 | 44 | – | – | – | – | – | 0 | 6 | 89 | 44
2 | CC(C)C[C@@H](C=O)NC(=O)[C@@H](COCc1ccccc1)NS(C)(=O)=O [Compound 88] (Ms-[dS](Bn)-Leu-aldehyde) | 93 | 40 | 5 | 0 | 91 | 88 | – | – | – | – | –
3 | CC(C)(C)OC(=O)NCCCC[C@@H](C=O)NC(=O)[C@@H](COCc1ccccc1)NS(C)(=O)=O [Compound 93] | 9 | 95 | 0 | 0 | 100 | 99 | – | – | – | – | –
4 | CS(=O)(=O)N[C@H](C(=O)N[C@H](C=O)Cc1ccccc1)c1cccs1 [Compound 97] | 37 | 79 | 4 | 25 | 100 | 89 | – | – | – | – | –
5 | CS(=O)(=O)N[C@H](Cc1cccs1)C(=O)N[C@H](C=O)Cc1ccccc1 [Compound 100] (Ms-[d2Thi]-Phe-aldehyde) | 15 | 96 | 0 | 0 | 100 | 97 | 31 | – | – | – | –
6 | CS(=O)(=O)N1CCC[C@@H]1C(=O)N[C@H](C=O)Cc1ccccc1 [Compound 101] (Ms-[dP]-Phe-aldehyde) | 53 | 84 | 0 | 2 | 100 | 46 | – | – | – | – | –
7 | O=C[C@H](Cc1ccccc1)NC(=O)[C@H]1CCCN1S(=O)(=O)Cc1ccccc1 [Compound 102] | 72 | 63 | 7 | 0 | 73 | 69 | – | – | – | – | –
8 | C[C@@H](NS(=O)(=O)c1ccccc1)C(=O)N[C@H](C=O)Cc1ccccc1 [Compound 104] | 93 | 45 | 7 | 6 | 97 | 86 | – | – | – | – | –
9 | C[C@](Cc1ccccc1)(NS(C)(=O)=O)C(=O)NC(C=O)Cc1ccccc1 (some centres unmarked) [Compound 105] (Ms-[d(αMeF)]-[ξF]-aldehyde) | – | 9 | 0 | 10 | 71 | 45 | – | – | – | – | –
10 | CS(=O)(=O)N[C@H](CSCc1ccccc1)C(=O)N[C@H](C=O)Cc1ccccc1 [Compound 106] (Ms-[dC](Bn)-Phe-aldehyde) | 8 | 95 | 7 | 16 | 100 | 92 | – | – | – | – | –

Now from value to molecule, other results behind:

Row | IC50 [1] [nM] | inhibition at 0.1 µM [1] [%] | inhibition at 10 µM (thrombin; Table III, 10 uM) [%] | inhibition at 10 µM (α-chymotrypsin; Table III, 10 uM) [%] | inhibition at 1 µM (cathepsin L; Table III, 1 uM) [%] | inhibition at 1 µM (cathepsin B; Table III, 1 uM) [%] | IC50 (cathepsin B; Table III) [nM] | SMILES | inhibition at 10 µM (thrombin) [%] | inhibition at 10 µM (α-chymotrypsin) [%] | inhibition at 1 µM (cathepsin L) [%] | inhibition at 1 µM (cathepsin B) [%]
11 | 40 | 72 | 0 | 8 | 100 | 78 | – | CC(C)C[C@@H](NS(C)(=O)=O)C(=O)N[C@H](C=O)Cc1ccccc1 [Compound 86] (Ms-[dL]-Phe-aldehyde) | – | – | – | –
12 | 15 | 82 | 0 | 4 | 97 | 100 | – | CS(=O)(=O)N[C@H](Cc1ccc(OCc2ccccc2)cc1)C(=O)N[C@H](C=O)Cc1ccccc1 [Compound 89] (Ms-[dY](Bn)-Phe-aldehyde) | – | – | – | –
13 | 5 | 99 | 0 | 0 | 99 | 100 | – | CS(=O)(=O)N[C@H](COCc1ccccc1)C(=O)N[C@H](C=O)Cc1ccc(OCc2ccccc2)cc1 [Compound 90] (Ms-[dS](Bn)-Tyr(Bn)-aldehyde) | – | – | – | –
14 | – | 30 | 0 | 53 | 100 | 68 | – | Cc1nn(C)c(Cl)c1S(=O)(=O)N[C@H](COCc1ccccc1)C(=O)N[C@H](C=O)Cc1ccccc1 [Compound 91] | – | – | – | –
15 | 4 | 100 | 0 | 0 | 100 | 100 | – | CS(=O)(=O)N[C@H](COCc1ccccc1)C(=O)N[C@H](C=O)CCCCNC(=O)OCc1ccccc1 [Compound 92] | – | – | – | –
16 | – | 14 | 0 | 1 | 93 | 0 | – | O=C[C@H](Cc1ccccc1)NC(=O)[C@@H](COCc1ccccc1)N1C(=O)c2ccccc2C1=O [Compound 94] | – | – | – | –
17 | 8 | 96 | 16 | 49 | 100 | 98 | 16 | CS(=O)(=O)N[C@@H](C(=O)N[C@H](C=O)Cc1ccccc1)c1cccs1 [Compound 98] | – | – | – | –
18 | 62 | 66 | 0 | 13 | 100 | 96 | – | CS(=O)(=O)N[C@@H](Cc1cccs1)C(=O)N[C@H](C=O)Cc1ccccc1 [Compound 99] (Ms-[2Thi]-Phe-aldehyde) | – | – | – | –
19 | 71 | 37 | 3 | 26 | 56 | 40 | – | CC(=O)Nc1ccc(S(=O)(=O)N2CCC[C@@H]2C(=O)N[C@H](C=O)Cc2ccccc2)cc1 [Compound 103] | – | – | – | –
20 | 40 | 59 | 0 | 0 | 98 | 70 | – | CS(=O)(=O)N[C@H](COCc1ccccc1)C(=O)N[C@H](C=O)Cc1ccccn1 [Compound 109] (Ms-[dS](Bn)-[2Pal]-aldehyde) | – | – | – | –
21 | – | 10 | 0 | 0 | 83 | 12 | – | CC(C)CC(C)(C=O)NC(=O)[C@@H](COCc1ccccc1)NS(C)(=O)=O (some centres unmarked) [Compound 110] (Ms-[dS](Bn)-[ξαMeL]-aldehyde) | – | – | – | –
22 | – | 27 | 0 | 16 | 91 | 10 | – | CC(C)(C)[C@@H](C=O)NC(=O)[C@@H](COCc1ccccc1)NS(C)(=O)=O [Compound 111] (Ms-[dS](Bn)-[Tle]-aldehyde) | – | – | – | –
23 | – | 7 | 0 | 9 | 100 | 25 | – | O=C[C@H](Cc1ccccc1)NC(=O)[C@H]1C[C@@H](OS(=O)(=O)c2ccccc2)CN1S(=O)(=O)c1ccccc1 [Compound 112] | – | – | – | –
